Experimental data: patent publication US20210308096A1, “COMPOSITION FOR PREVENTING OR TREATING PRURITUS” (INDUSTRIAL COOPERATION FOUNDATION CHONBUK NATIONAL …, priority 2017, published 2021)

Columns and labels:
Type in all cases: in vivo, BALB/c mice
[1] = test system: histamine-induced pruritus; experiment: Histamine-induced pruritus, number of scratching actions (MicroAct); details: mice; 1 μM and 10 μM injected subcutaneously together with 100 μg histamine; counted for 1 hour; p<0.01 versus histamine-treated group; FIG. 1
Experimental: (§1) Six-week-old, specific-pathogen-free male BALB/c mice were purchased from Orient Bio Korea Inc. (Gapyeong, Gyeonggi-do, Korea) and housed in a laminar flow cabinet. They were provided with standard solid chows ad libitum. At the onset of the test, the mice were 7-8 weeks old. All animal care and use were performed in accordance with the protocol of the Institutional Animal Care and Use Committee of the Chonbuk National University Medical School. Isoflavone-based compounds genistein, daidzein, glycitein and equol were purchased from Sigma. They were dissolved in DMSO and diluted with distilled water. […] Histamine, chloroquine and DNCB were also purchased from Sigma. Pruritus was induced by subcutaneously injecting histamine and chloroquine to the mice. Specifically, 0.1 mL of 2 mg/mL histamine and 4 mg/mL chloroquine were injected respectively. Pruritus was evaluated using MicroAct (Neuroscience, Inc., Tokyo, Japan) according to the method established by the company. The mouse was anesthetized and a magnet piece was inserted into the foot skin of the left hind leg. The mouse was put in a chamber surrounded by a coil and the number of scratching actions was recorded by a computer based on the electrical field generated by the scratching. The experimental conditions of the MicroAct were set as follows. Threshold p-p limit, 0.125 V; threshold minimum duration, 0.2 s; maximum amplitude range, 0.5 V; minimum amplitude range, 0.05 V; maximum frequency, 20 Hz; minimum frequency, 5 Hz. Recording was made only for 3 or more consecutive scratching actions. All the experiments were performed for at least 3 times and 2-3 mice were used per each group. Statistical data were represented by means and standard deviations. Statistical comparison was conducted by one-way ANOVA and the Fisher test. Significant difference between the groups was determined by the unpaired Student's t-test. The significant level of the p-value was less than 0.05. In order to measure the effect of inhibiting histamine-induced pruritus of genistein, daidzein, glycitein and equol, 100 μg of histamine was dissolved in 0.1 mL of physiological saline and injected subcutaneously to induce pruritus. After injecting each of genistein, daidzein, glycitein and equol at 1 μM and 10 μM together with the histamine, the number of scratching actions was counted for 1 hour.

[2] = test system: chloroquine-induced pruritus; experiment: Chloroquine-induced pruritus, number of scratching actions (MicroAct); details: mice; 1 μM and 10 μM injected subcutaneously together with 200 μg chloroquine; counted for 1 hour; p<0.01 versus chloroquine-treated group; FIG. 2
Experimental: as §1, with “inhibiting chloroquine-induced” for “inhibiting histamine-induced”, “equol, 200” for “equol, 100”, “of chloroquine” for “of histamine”, “the chloroquine,” for “the histamine,”

[3] = test system: TSLP-induced pruritus; experiment: TSLP-induced pruritus, number of scratching actions (MicroAct); details: mice; 1 μM and 10 μM injected subcutaneously together with 0.67 μg TSLP; counted for 1 hour; p<0.05 versus TSLP-treated group; FIG. 5
Experimental: Six-week-old, specific-pathogen-free male BALB/c mice were purchased from Orient Bio Korea Inc. (Gapyeong, Gyeonggi-do, Korea) and housed in a laminar flow cabinet. They were provided with standard solid chows ad libitum. At the onset of the test, the mice were 7-8 weeks old. All animal care and use were performed in accordance with the protocol of the Institutional Animal Care and Use Committee of the Chonbuk National University Medical School. Isoflavone-based compounds genistein, daidzein, glycitein and equol were purchased from Sigma. They were dissolved in DMSO and diluted with distilled water. […] Histamine, chloroquine and DNCB were also purchased from Sigma. Pruritus was induced with TSLP. 0.67 μg of TSLP was dissolved in 0.1 mL of physiological saline and injected subcutaneously to induce pruritus. Pruritus was evaluated using MicroAct (Neuroscience, Inc., Tokyo, Japan) according to the method established by the company. The mouse was anesthetized and a magnet piece was inserted into the foot skin of the left hind leg. The mouse was put in a chamber surrounded by a coil and the number of scratching actions was recorded by a computer based on the electrical field generated by the scratching. The experimental conditions of the MicroAct were set as follows. Threshold p-p limit, 0.125 V; threshold minimum duration, 0.2 s; maximum amplitude range, 0.5 V; minimum amplitude range, 0.05 V; maximum frequency, 20 Hz; minimum frequency, 5 Hz. Recording was made only for 3 or more consecutive scratching actions. All the experiments were performed for at least 3 times and 2-3 mice were used per each group. Statistical data were represented by means and standard deviations. Statistical comparison was conducted by one-way ANOVA and the Fisher test. Significant difference between the groups was determined by the unpaired Student's t-test. The significant level of the p-value was less than 0.05. In order to measure the effect of inhibiting thymic stromal lymphopoietin (TSLP)-induced pruritus of genistein, daidzein, glycitein and equol, 0.67 μg of TSLP solution dissolved in 0.1 mL of physiological saline and injected subcutaneously to induce pruritus. After injecting each of genistein, daidzein, glycitein and equol at 1 μM and 10 μM together with the TSLP, the number of scratching actions was counted for 1 hour.

[4] = test system: DNCB-induced pruritus; experiment: DNCB-induced pruritus, number of scratching actions (MicroAct); details: DNCB-sensitized mice; 1 μM or 10 μM applied on the right ear with DNCB; counted for 1 hour; p<0.01 versus DNCB-treated group; FIG. 3
Experimental: Six-week-old, specific-pathogen-free male BALB/c mice were purchased from Orient Bio Korea Inc. (Gapyeong, Gyeonggi-do, Korea) and housed in a laminar flow cabinet. They were provided with standard solid chows ad libitum. At the onset of the test, the mice were 7-8 weeks old. All animal care and use were performed in accordance with the protocol of the Institutional Animal Care and Use Committee of the Chonbuk National University Medical School. Isoflavone-based compounds genistein, daidzein, glycitein and equol were purchased from Sigma. They were dissolved in DMSO and diluted with distilled water. […] Histamine, chloroquine and DNCB were also purchased from Sigma. Pruritus was induced with DNCB. Specifically, after removing hair from the right ear of the mouse, 20 μL of 1% DNCB dissolved in a mixture of olive oil and ethanol (1:4) was applied for sensitization. 10 μL of 0.5% DNCB was applied on the same ear 7 days later (Exp. Dermatol., 2002, 11:285-291). Pruritus was evaluated using MicroAct (Neuroscience, Inc., Tokyo, Japan) according to the method established by the company. The mouse was anesthetized and a magnet piece was inserted into the foot skin of the left hind leg. The mouse was put in a chamber surrounded by a coil and the number of scratching actions was recorded by a computer based on the electrical field generated by the scratching. The experimental conditions of the MicroAct were set as follows. Threshold p-p limit, 0.125 V; threshold minimum duration, 0.2 s; maximum amplitude range, 0.5 V; minimum amplitude range, 0.05 V; maximum frequency, 20 Hz; minimum frequency, 5 Hz. Recording was made only for 3 or more consecutive scratching actions. All the experiments were performed for at least 3 times and 2-3 mice were used per each group. Statistical data were represented by means and standard deviations. Statistical comparison was conducted by one-way ANOVA and the Fisher test. Significant difference between the groups was determined by the unpaired Student's t-test. The significant level of the p-value was less than 0.05. In order to measure the effect of inhibiting DNCB-induced pruritus of genistein, daidzein, glycitein and equol, 20 μL of a 1% DNCB solution was applied on the right ear of the mouse for 7 days for sensitization. 10 μL of 0.5% DNCB was applied on the same ear 7 days later, 1 μM or 10 μM genistein, daidzein, glycitein or equol and 1% DNCB dissolved in physiological saline was applied on the right ear (physiological saline was applied for a negative control group) and the number of scratching actions was counted for 1 hour.

[5] = test system: SLIGRL-induced pruritus (agonist for the protease activated receptor 2); experiment: SLIGRL-induced pruritus, number of scratching actions (MicroAct); details: mice; 1 μM and 10 μM injected subcutaneously together with 20 μg SLIGRL; counted for 1 hour; p<0.05 versus SLIGRL-treated group; FIG. 4
Experimental: Six-week-old, specific-pathogen-free male BALB/c mice were purchased from Orient Bio Korea Inc. (Gapyeong, Gyeonggi-do, Korea) and housed in a laminar flow cabinet. They were provided with standard solid chows ad libitum. At the onset of the test, the mice were 7-8 weeks old. All animal care and use were performed in accordance with the protocol of the Institutional Animal Care and Use Committee of the Chonbuk National University Medical School. Isoflavone-based compounds genistein, daidzein, glycitein and equol were purchased from Sigma. They were dissolved in DMSO and diluted with distilled water. […] Histamine, chloroquine and DNCB were also purchased from Sigma. Pruritus was induced with SLIGRL. Specifically, 20 μg of SLIGRL was dissolved in 0.1 mL of physiological saline and injected subcutaneously to induce pruritus. Pruritus was evaluated using MicroAct (Neuroscience, Inc., Tokyo, Japan) according to the method established by the company. The mouse was anesthetized and a magnet piece was inserted into the foot skin of the left hind leg. The mouse was put in a chamber surrounded by a coil and the number of scratching actions was recorded by a computer based on the electrical field generated by the scratching. The experimental conditions of the MicroAct were set as follows. Threshold p-p limit, 0.125 V; threshold minimum duration, 0.2 s; maximum amplitude range, 0.5 V; minimum amplitude range, 0.05 V; maximum frequency, 20 Hz; minimum frequency, 5 Hz. Recording was made only for 3 or more consecutive scratching actions. All the experiments were performed for at least 3 times and 2-3 mice were used per each group. Statistical data were represented by means and standard deviations. Statistical comparison was conducted by one-way ANOVA and the Fisher test. Significant difference between the groups was determined by the unpaired Student's t-test. The significant level of the p-value was less than 0.05. In order to measure the effect of inhibiting pruritus induced by SLIGRL, which is an agonist for the protease activated receptor 2, of genistein, daidzein, glycitein and equol, 20 μg of SLIGRL was dissolved in 0.1 mL of physiological saline and injected subcutaneously to induce pruritus. After injecting each of genistein, daidzein, glycitein and equol at 1 μM and 10 μM together with the SLIGRL, the number of scratching actions was counted for 1 hour.

SMILES: O=c1c(-c2ccc(O)cc2)coc2cc(O)cc(O)c12 [Genistein, genistein]
- Effect of inhibiting histamine-induced pruritus (number of scratching actions) [1]: significantly inhibited
- Effect of inhibiting chloroquine-induced pruritus (number of scratching actions) [2]: significantly inhibited
- Effect of inhibiting TSLP-induced pruritus (number of scratching actions) [3]: significantly inhibited
- Effect of inhibiting DNCB-induced pruritus (number of scratching actions) [4]: significantly inhibited
- Effect of inhibiting SLIGRL-induced pruritus (number of scratching actions) [5]: significantly inhibited

SMILES: O=c1c(-c2ccc(O)cc2)coc2cc(O)ccc12 [daidzein]
- Effect of inhibiting histamine-induced pruritus (number of scratching actions) [1]: significantly inhibited
- Effect of inhibiting chloroquine-induced pruritus (number of scratching actions) [2]: significantly inhibited
- Effect of inhibiting TSLP-induced pruritus (number of scratching actions) [3]: significantly inhibited
- Effect of inhibiting DNCB-induced pruritus (number of scratching actions) [4]: significantly inhibited
- Effect of inhibiting SLIGRL-induced pruritus (number of scratching actions) [5]: significantly inhibited

SMILES: Oc1ccc([C@H]2COc3cc(O)ccc3C2)cc1 [equol]
- Effect of inhibiting histamine-induced pruritus (number of scratching actions) [1]: did not inhibit
- Effect of inhibiting chloroquine-induced pruritus (number of scratching actions) [2]: did not inhibit
- Effect of inhibiting TSLP-induced pruritus (number of scratching actions) [3]: did not inhibit
- Effect of inhibiting DNCB-induced pruritus (number of scratching actions) [4]: did not inhibit
- Effect of inhibiting SLIGRL-induced pruritus (number of scratching actions) [5]: did not inhibit

SMILES: COc1cc2c(=O)c(-c3ccc(O)cc3)coc2cc1O [glycitein]
- Effect of inhibiting histamine-induced pruritus (number of scratching actions) [1]: did not inhibit
- Effect of inhibiting chloroquine-induced pruritus (number of scratching actions) [2]: did not inhibit
- Effect of inhibiting TSLP-induced pruritus (number of scratching actions) [3]: did not inhibit
- Effect of inhibiting DNCB-induced pruritus (number of scratching actions) [4]: did not inhibit
- Effect of inhibiting SLIGRL-induced pruritus (number of scratching actions) [5]: did not inhibit
